Assay results from PMC7377239, “Cardiovascular Effects of Polychlorinated Biphenyls and Their Major Metabolites” (Environmental Health Perspectives, 2020).
Where a name gives a salt, the structure may show the parent alone. Read-outs that look alike come from different tables or passages of the source.

Tested on: iCell cardiomyocytes (human iPSC-derived cardiomyocytes)
Test: Intracellular Ca2+ flux / beating parameters in iCell cardiomyocytes (FLIPR tetra), 90 min or 24 h
Type: cell-based
Conditions: Homo sapiens, Cardiomyocyte, 0.00 µM = 100.00; for activity at 0.1 µM: 0.10 µM
Procedure, shortened: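 PODs were defined as the concentration crossing one SD of the vehicle-control means (0.5% DMSO) on four-parameter logistic fits of Ca2+ trace metrics (peak height, frequency, peak-spacing CV, decay/rise ratio). Traces came from 100 s, 8 Hz FLIPR reads at 37 °C on calcium-dye-loaded iCell cardiomyocytes. Before reading, cells were treated for 90 min or 24 h from 5× chemical plates spanning 0.05–500 µM, in triplicate.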

[1] = 1.5 h, read-out: cm.amp.avg.90min
[2] = 1.5 h, read-out: cm.amp.cv.90min
[3] = 1.5 h, read-out: cm.decay.rise.90min
[4] = 1.5 h, read-out: cm.spacing.cv.90min
[5] = 24 h, read-out: cm.amp.avg.24hrs
[6] = 24 h, read-out: cm.amp.cv.24hrs
[7] = 24 h, read-out: cm.decay.rise.24hrs
[8] = 24 h, read-out: cm.spacing.cv.24hrs

Compound: Oc1ccc(-c2cccc(Cl)c2)cc1Cl [4-OH PCB11]
- activity at 0.01 µM [1]: 107%
- activity at 0.01 µM [2]: 101%
- activity at 0.01 µM (1.5 h, read-out: cm.bpm.90min): 107%
- activity at 0.01 µM [3]: 99.5%
- activity at 0.01 µM [4]: 111%
- activity at 0.1 µM [1]: 96%
- activity at 0.1 µM [2]: 97.9%
- activity at 0.1 µM (1.5 h, read-out: cm.bpm.90min): 102%
- activity at 0.1 µM [3]: 94.9%
- activity at 0.1 µM [4]: 90.9%
- activity at 1 µM [1]: 103%
- activity at 1 µM [2]: 91.8%
- activity at 1 µM (1.5 h, read-out: cm.bpm.90min): 99.1%
- activity at 1 µM [3]: 96.5%
- activity at 1 µM [4]: 95.9%
- activity at 10 µM [1]: 89.2%
- activity at 10 µM [2]: 99%
- activity at 10 µM (1.5 h, read-out: cm.bpm.90min): 104%
- activity at 10 µM [3]: 94.9%
- activity at 10 µM [4]: 104%
- activity at 100 µM [1]: 0%
- activity at 100 µM [2]: 0%
- activity at 100 µM (1.5 h, read-out: cm.bpm.90min): 0%
- activity at 100 µM [3]: 0%
- activity at 100 µM [4]: 0%
- activity at 0.01 µM [5]: 93.8%
- activity at 0.01 µM [6]: 28.6%
- activity at 0.01 µM (24 h, read-out: cm.bpm.24hrs): 46.8%
- activity at 0.01 µM [7]: 48.9%
- activity at 0.01 µM [8]: 46.2%
- activity at 0.1 µM [5]: 110%
- activity at 0.1 µM [6]: 104%
- activity at 0.1 µM (24 h, read-out: cm.bpm.24hrs): 92.6%
- activity at 0.1 µM [7]: 109%
- activity at 0.1 µM [8]: 104%
- activity at 1 µM [5]: 92.2%
- activity at 1 µM [6]: 98.4%
- activity at 1 µM (24 h, read-out: cm.bpm.24hrs): 89.7%
- activity at 1 µM [7]: 99.3%
- activity at 1 µM [8]: 89.5%
- activity at 10 µM [5]: 135%
- activity at 10 µM [6]: 67.1%
- activity at 10 µM (24 h, read-out: cm.bpm.24hrs): 93.6%
- activity at 10 µM [7]: 106%
- activity at 10 µM [8]: 91.5%
- activity at 100 µM [5]: 0%
- activity at 100 µM [6]: 0%
- activity at 100 µM (24 h, read-out: cm.bpm.24hrs): 0%
- activity at 100 µM [7]: 0%
- activity at 100 µM [8]: 0%

Compound: O=S(=O)(O)Oc1cc(Cl)ccc1-c1ccccc1 [2-yl PCB 3 sulfate]
- activity at 0.01 µM [1]: 107%
- activity at 0.01 µM [2]: 102%
- activity at 0.01 µM (1.5 h, read-out: cm.bpm.90min): 99.1%
- activity at 0.01 µM [3]: 97.6%
- activity at 0.01 µM [4]: 134%
- activity at 0.1 µM [1]: 107%
- activity at 0.1 µM [2]: 90.3%
- activity at 0.1 µM (1.5 h, read-out: cm.bpm.90min): 97.8%
- activity at 0.1 µM [3]: 94.2%
- activity at 0.1 µM [4]: 100%
- activity at 1 µM [1]: 102%
- activity at 1 µM [2]: 102%
- activity at 1 µM (1.5 h, read-out: cm.bpm.90min): 96.5%
- activity at 1 µM [3]: 99.3%
- activity at 1 µM [4]: 99.6%
- activity at 10 µM [1]: 106%
- activity at 10 µM [2]: 107%
- activity at 10 µM (1.5 h, read-out: cm.bpm.90min): 96.5%
- activity at 10 µM [3]: 97.2%
- activity at 10 µM [4]: 90.8%
- activity at 100 µM [1]: 114%
- activity at 100 µM [2]: 117%
- activity at 100 µM (1.5 h, read-out: cm.bpm.90min): 84%
- activity at 100 µM [3]: 100%
- activity at 100 µM [4]: 99%
- activity at 0.01 µM [5]: 117%
- activity at 0.01 µM [6]: 119%
- activity at 0.01 µM (24 h, read-out: cm.bpm.24hrs): 111%
- activity at 0.01 µM [7]: 86.8%
- activity at 0.01 µM [8]: 109%
- activity at 0.1 µM [5]: 63.4%
- activity at 0.1 µM [6]: 37.6%
- activity at 0.1 µM (24 h, read-out: cm.bpm.24hrs): 53.5%
- activity at 0.1 µM [7]: 43.6%
- activity at 0.1 µM [8]: 50.5%
- activity at 1 µM [5]: 0%
- activity at 1 µM [6]: 0%
- activity at 1 µM (24 h, read-out: cm.bpm.24hrs): 0%
- activity at 1 µM [7]: 0%
- activity at 1 µM [8]: 0%
- activity at 10 µM [5]: 121%
- activity at 10 µM [6]: 81.4%
- activity at 10 µM (24 h, read-out: cm.bpm.24hrs): 92.6%
- activity at 10 µM [7]: 98.1%
- activity at 10 µM [8]: 91.4%
- activity at 100 µM [5]: 97.7%
- activity at 100 µM [6]: 85.5%
- activity at 100 µM (24 h, read-out: cm.bpm.24hrs): 77.3%
- activity at 100 µM [7]: 106%
- activity at 100 µM [8]: 86.6%

Compound: Oc1cccc(-c2ccc(Cl)cc2)c1 [3'-OH PCB3]
- activity at 0.01 µM [1]: 95.3%
- activity at 0.01 µM [2]: 94.5%
- activity at 0.01 µM (1.5 h, read-out: cm.bpm.90min): 97.8%
- activity at 0.01 µM [3]: 96.7%
- activity at 0.01 µM [4]: 101%
- activity at 0.1 µM [1]: 100%
- activity at 0.1 µM [2]: 80.2%
- activity at 0.1 µM (1.5 h, read-out: cm.bpm.90min): 102%
- activity at 0.1 µM [3]: 97.5%
- activity at 0.1 µM [4]: 106%
- activity at 1 µM [1]: 97.7%
- activity at 1 µM [2]: 92.4%
- activity at 1 µM (1.5 h, read-out: cm.bpm.90min): 105%
- activity at 1 µM [3]: 102%
- activity at 1 µM [4]: 98.3%
- activity at 10 µM [1]: 90.4%
- activity at 10 µM [2]: 103%
- activity at 10 µM (1.5 h, read-out: cm.bpm.90min): 130%
- activity at 10 µM [3]: 97.2%
- activity at 10 µM [4]: 123%
- activity at 100 µM [1]: 0%
- activity at 100 µM [2]: 0%
- activity at 100 µM (1.5 h, read-out: cm.bpm.90min): 0%
- activity at 100 µM [3]: 0%
- activity at 100 µM [4]: 0%
- activity at 0.01 µM [5]: 82.3%
- activity at 0.01 µM [6]: 114%
- activity at 0.01 µM (24 h, read-out: cm.bpm.24hrs): 104%
- activity at 0.01 µM [7]: 102%
- activity at 0.01 µM [8]: 105%
- activity at 0.1 µM [5]: 110%
- activity at 0.1 µM [6]: 78.7%
- activity at 0.1 µM (24 h, read-out: cm.bpm.24hrs): 97.4%
- activity at 0.1 µM [7]: 94.2%
- activity at 0.1 µM [8]: 100%
- activity at 1 µM [5]: 88.2%
- activity at 1 µM [6]: 107%
- activity at 1 µM (24 h, read-out: cm.bpm.24hrs): 99.3%
- activity at 1 µM [7]: 102%
- activity at 1 µM [8]: 97%
- activity at 10 µM [5]: 22%
- activity at 10 µM [6]: 101%
- activity at 10 µM (24 h, read-out: cm.bpm.24hrs): 56.3%
- activity at 10 µM [7]: 44.1%
- activity at 10 µM [8]: 54.5%
- activity at 100 µM [5]: 0%
- activity at 100 µM [6]: 0%
- activity at 100 µM (24 h, read-out: cm.bpm.24hrs): 0%
- activity at 100 µM [7]: 0%
- activity at 100 µM [8]: 0%
